Experimental data published in PubChem BioAssay AID256 (DTP/NCI, 2004).
Several values for one entry are separate records, joined by “and”; a condition that tells them apart may be missing. Equal values may be shown once. Inconclusive results and toxic doses are left out. The calls were made as follows: active = survival T/C of 150% or more; inactive = T/C below 125% in these data.

Test system: CD2F1 mice, L1210 leukemia ip, survival T/C
Test: NCI In Vivo Anticancer Drug Screen. Data for tumor model L1210 Leukemia (intraperitoneal) in CD2F1 (CDF1) mice
Conditions: higher = longer survival
Summary of the method: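 Each value reflects a quotient of treated over vehicle control outcomes in mice with a transplanted tumor.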

[1] = endpoint: mean survival time, dose: 100.0 mg/kg/injection, schedule: Q01DX009 (ip), vehicle: saline with Tween-80
[2] = endpoint: mean survival time, dose: 100.0 mg/kg/injection, schedule: Q04DX003 (ip), vehicle: saline with Tween-80
[3] = endpoint: mean survival time, dose: 200.0 mg/kg/injection, schedule: Q04DX003 (ip), vehicle: saline with Tween-80
[4] = endpoint: mean survival time, dose: 400.0 mg/kg/injection, schedule: Q04DX003 (ip), vehicle: saline with Tween-80
[5] = endpoint: mean survival time, dose: 200.0 mg/kg/injection, schedule: Q01DX009 (ip), vehicle: saline with Tween-80
[6] = endpoint: mean survival time, dose: 400.0 mg/kg/injection, schedule: Q01DX009 (ip), vehicle: saline with Tween-80

Measured: T/C

c1ccc(CCCNc2nnnc3ccccc23)cc1
inactive: endpoint: mean survival time, dose: 100.0 mg/kg/injection, schedule: Q04DX002 (ip), vehicle: saline with Tween-80 95 % of control | endpoint: mean survival time, dose: 200.0 mg/kg/injection, schedule: Q04DX002 (ip), vehicle: saline with Tween-80 103 % of control | endpoint: mean survival time, dose: 400.0 mg/kg/injection, schedule: Q04DX002 (ip), vehicle: saline with Tween-80 91 % of control

Cc1ccc(C2(c3ccccc3)OC(=O)c3ccccc32)cc1 (stereo not given)
inactive: [1] 86 % of control | [2] 89 % of control | [3] 87 % of control | [4] 86 % of control

O=C(c1ccccc1)c1cccc(C(Br)Br)c1
inactive: [1] 95 % of control | [5] 93 % of control | [6] 101 % of control

CC1(C)OC2C(C#N)OC(n3ccc(=O)[nH]c3=O)C2O1 (stereo not given)
inactive: endpoint: median survival time, dose: 21.88 mg/kg/injection, schedule: Q01DX005 (ip), vehicle: Klucel (hydroxypropylcellulose) (HPC) 101 % of control | endpoint: median survival time, dose: 43.75 mg/kg/injection, schedule: Q01DX005 (ip), vehicle: Klucel (hydroxypropylcellulose) (HPC) 102 % of control | endpoint: median survival time, dose: 87.5 mg/kg/injection, schedule: Q01DX005 (ip), vehicle: Klucel (hydroxypropylcellulose) (HPC) 98 % of control | endpoint: median survival time, dose: 175.0 mg/kg/injection, schedule: Q01DX005 (ip), vehicle: Klucel (hydroxypropylcellulose) (HPC) 102 % of control

COc1cc2c(cc1O)-c1cc3ccc(OC)c(OC)c3c[n+]1CC2
inactive: endpoint: mean survival time, dose: 25.0 mg/kg/injection, schedule: Q04DX002 (ip), vehicle: saline 111 % of control | endpoint: mean survival time, dose: 25.0 mg/kg/injection, schedule: Q04DX003 (ip), vehicle: suspension in saline 94 % of control | endpoint: mean survival time, dose: 50.0 mg/kg/injection, schedule: Q04DX002 (ip), vehicle: saline 97 % of control | endpoint: mean survival time, dose: 50.0 mg/kg/injection, schedule: Q04DX003 (ip), vehicle: suspension in saline 90 % of control | endpoint: mean survival time, dose: 100.0 mg/kg/injection, schedule: Q04DX002 (ip), vehicle: saline 104 % of control | endpoint: mean survival time, dose: 100.0 mg/kg/injection, schedule: Q04DX003 (ip), vehicle: suspension in saline 102 % of control | endpoint: mean survival time, dose: 200.0 mg/kg/injection, schedule: Q04DX002 (ip), vehicle: saline 104 % of control | endpoint: mean survival time, dose: 200.0 mg/kg/injection, schedule: Q04DX003 (ip), vehicle: suspension in saline 109 % of control

CC(=O)N(C)C
inactive: endpoint: mean survival time, dose: 62.0 mg/kg/injection, schedule: Q01DX Z (ip), vehicle: saline 92 % of control | endpoint: mean survival time, dose: 112.0 mg/kg/injection, schedule: Q01DX009 (ip), vehicle: saline 100 % of control | endpoint: mean survival time, dose: 122.5 mg/kg/injection, schedule: Q01DX009 (ip), vehicle: saline 91 % of control | endpoint: mean survival time, dose: 125.0 mg/kg/injection, schedule: Q01DX Z (ip), vehicle: saline 96 % of control | endpoint: mean survival time, dose: 225.0 mg/kg/injection, schedule: Q01DX009 (ip), vehicle: saline 95 % of control and 97 % of control | endpoint: mean survival time, dose: 250.0 mg/kg/injection, schedule: Q01DX Z (ip), vehicle: saline 92 % of control | endpoint: mean survival time, dose: 450.0 mg/kg/injection, schedule: Q01DX009 (ip), vehicle: saline 101 % of control and 103 % of control | endpoint: mean survival time, dose: 500.0 mg/kg/injection, schedule: Q01DX Z (ip), vehicle: saline 102 % of control | endpoint: mean survival time, dose: 900.0 mg/kg/injection, schedule: Q01DX009 (ip), vehicle: saline 89 % of control and 90 % of control | endpoint: mean survival time, dose: 1800.0 mg/kg/injection, schedule: Q01DX009 (ip), vehicle: saline 117 % of control and 112 % of control

Cc1ccc(C(C)NC2=NCCO2)c(C)c1 (stereo not given)
inactive: endpoint: mean survival time, dose: 25.0 mg/kg/injection, schedule: Q04DX002 (ip), vehicle: saline with Tween-80 91 % of control | endpoint: mean survival time, dose: 50.0 mg/kg/injection, schedule: Q04DX002 (ip), vehicle: saline with Tween-80 95 % of control

CCCC(=O)OCc1ccc(Cl)cc1Cl
inactive: [1] 96 % of control | [2] 91 % of control | [5] 98 % of control | [3] 89 % of control | [6] 98 % of control | [4] 96 % of control

NC(=O)SCCCCl
inactive: [1] 103 % of control | endpoint: mean survival time, dose: 118.0 mg/kg/injection, schedule: Q01DX009 (ip), vehicle: saline with Tween-80 106 % of control | endpoint: mean survival time, dose: 178.0 mg/kg/injection, schedule: Q01DX009 (ip), vehicle: saline with Tween-80 112 % of control | [5] 113 % of control | endpoint: mean survival time, dose: 266.0 mg/kg/injection, schedule: Q01DX009 (ip), vehicle: saline with Tween-80 124 % of control
